From a compilation of properties of binary mixtures (doi:10.1016/j.fluid.2019.112304)

Experiment: xn = mol fraction of the nth substance listed
Settings: 101 kPa

CCCCO + CCCCCCCCCCCC[N+](C)(C)Cc1ccccc1.O=S(=O)([N-]S(=O)(=O)C(F)(F)F)C(F)(F)F
x2 = 0
Settings | viscosity [mPa·s]
303.15 K | 2.23
318.15 K | 1.56
323.15 K | 1.42
328.15 K | 1.27
333.15 K | 1.11
338.15 K | 1.01

CCCCCCCCCCCC[N+](C)(C)Cc1ccccc1.O=S(=O)([N-]S(=O)(=O)C(F)(F)F)C(F)(F)F + CCCCO
viscosity [mPa·s]
Settings | x1 = 0.1507 | x1 = 0.3015 | x1 = 0.4494 | x1 = 0.594 | x1 = 0.7485 | x1 = 0.9164 | x1 = 1
298.15 K | 15.3 | 43.6 | 103 | 208 | 505 | 1066 | –
303.15 K | 12.4 | – | 78 | 153 | 362 | 748 | 970
308.15 K | 10.4 | – | 60.1 | 115 | 266 | 532 | –
313.15 K | 8.75 | 22 | 47.2 | 86.1 | – | 386 | 485
318.15 K | – | 18.1 | – | 69.1 | 150 | 285 | 351
323.15 K | 6.4 | 14.9 | 30.4 | 57.2 | 117 | 210 | 261
328.15 K | 5.54 | 12.5 | 24.9 | 46.8 | 91.6 | – | 197
333.15 K | – | 10.5 | – | – | 76.8 | 125 | 152
338.15 K | 4.24 | 8.87 | 17.2 | 33.8 | – | 99 | –
343.15 K | 3.75 | 7.58 | 14.6 | 29 | – | 79.2 | 91.8
348.15 K | 3.43 | 6.53 | 12.2 | – | 46.3 | 68 | 77.5

c1ccsc1 + N#C[C-](C#N)C#N.OCC[n+]1ccccc1
x2 = 0
Settings | viscosity [mPa·s]
293.15 K | 0.653
298.15 K | 0.615
308.15 K | 0.545
313.15 K | 0.518
318.15 K | 0.491
323.15 K | 0.464
328.15 K | 0.441
338.15 K | 0.4
343.15 K | 0.382

N#C[C-](C#N)C#N.OCC[n+]1ccccc1 + c1ccsc1
viscosity [mPa·s]
Settings | x1 = 0.4042 | x1 = 0.4996 | x1 = 0.6 | x1 = 0.7041 | x1 = 0.8044 | x1 = 0.901 | x1 = 1
293.15 K | 19.9 | 29.5 | 40.2 | – | 67 | 91.2 | –
298.15 K | 16.3 | 23.6 | 31.8 | 41.2 | 51.6 | – | 97
303.15 K | 13.6 | – | 25.5 | 32.7 | 40.1 | – | 71.8
308.15 K | 11.5 | 15.8 | 20.7 | 26.1 | 31.6 | 39.6 | 54.6
313.15 K | 10 | 13.4 | 17.2 | 21.2 | 25.6 | 31.6 | 42.3
318.15 K | 8.78 | 11.4 | 14.4 | 17.7 | – | 25.7 | 34
323.15 K | 7.81 | 9.87 | – | 14.8 | 17.6 | 21.3 | 27.8
328.15 K | 7.01 | 8.67 | 10.6 | – | 14.8 | – | 22.9
333.15 K | 6.15 | – | – | 10.9 | 12.8 | 15.2 | 19.3
338.15 K | – | – | 7.86 | – | 11.1 | 13.1 | 16.4
343.15 K | 4.68 | – | 6.99 | 8.4 | – | 11.5 | 14
348.15 K | 4.17 | 5.12 | 6.2 | 7.5 | 8.89 | 10.3 | 12.3
